According to US20210369667A1, “COMPOSITIONS AND METHODS FOR THE PREVENTION AND TREATMENT OF RADIATION DERMATITIS, ECZEMA, BURNS, WOUNDS AND CERTAIN CANCERS” (VIZURI HEALTH SCIENCES CONSUMER HEALTHCARE, INC., priority 2019, published 2021):

How the values were obtained:
[1] = SEM particle morphology of hydrated apigenin; format: physicochemical
Source text: Scanning Electron Microscopy (SEM) images of the hydrated apigenin, and unprocessed apigenin powder were collected to determine particle morphology details. […] The chemical composition as determined by FTIR and Raman Spectroscopy, could not detect any chemical differences in the unprocessed apigenin and the hydrated apigenin. […] The hydrated apigenin was composed of fibers with diameters of 30-500 nm (a range of being nano-fibers) with aspect ratios measuring greater than 20.

[2] = tested on: acute radiation dermatitis; conditions: 49 patients; prophylactic MMF with emollient cream vs emollient cream alone; cited from earlier work
[3] = Apigenin solubility in NaOH solutions; format: physicochemical; conditions: sodium hydroxide solution, aqueous buffer
Source text: A good solubility of polyphenols in the alkaline medium is very important in generating well hydrated polyphenols upon acidification. The regenerated hydrated products mix well in the formulations. Sodium hydroxide solution is an effective solubilizer at different concentrations for apigenin, a polyphenol flavonoid. This is exemplified in the table below— Apigenin Solubility in NaOH Solutions [table]

Structure (SMILES): O=c1cc(-c2ccc(O)cc2)oc2cc(O)cc(O)c12 [hydrated apigenin]
- aspect ratios of fibers [1]: greater than 20
- fiber diameters [1]: 30-500 nm

Structure (SMILES): C[C@@H]1C[C@H]2[C@@H]3CCC4=CC(=O)C=C[C@]4(C)[C@@]3(Cl)[C@@H](O)C[C@]2(C)[C@@]1(OC(=O)c1ccco1)C(=O)CCl [MMF, mometasone furoate]
- acute radiation dermatitis [2]: significantly decreased acute radiation dermatitis

Structure (SMILES): O=c1cc(-c2ccc(O)cc2)oc2cc(O)cc(O)c12 [Apigenin]
- solubility ([3]; NaOH Molarity 0.75 moles/liter): > 150 mg/mL
- solubility ([3]; NaOH Molarity 1.015 moles/liter): > 200 mg/mL
- solubility ([3]; NaOH Molarity 2.0 moles/liter): > 300 mg/mL
